According to patent publication US5843941A, “Ras farnesyl transferase inhibitors” (Genentech, Inc., priority 1994, dated 1998):
Entries after “also recorded” stand apart in the source; their conditions may differ.

Tests used:
MDA-7 cells = experiment: Growth inhibition of human tumor line MDA-7; assay type: cell-based; settings: MDA-7, breast, not ras transformed, read-out: % growth inhib.
Protocol: (§1) To examine the effects of farnesyltransferase inhibition on cell growth, three cell lines (ras-transformed rat-1, src-transformed rat-1, and parental rat-1 cells) were seeded (see FIG. 7) at low density and allowed to grow for 10 days in the absence or presence of increasing concentrations of BZA-5B (compound 37). See Example 128 for description of cells. On day 0, cells were plated in monolayer culture at 2×10^3 cells per well (24-well plates) in 1 ml DMEM supplemented with 10% fetal calf serum, 100 U/ml penicillin, 100 μg/ml streptomycin, 0.5 mM DTT, 0.025% DMSO, and the indicated concentration of BZA-5B (compound 37). On days 3 and 7, cells were washed and refed with the same medium. At the time indicated in FIG. 7, cells were harvested by trypsinization and counted in a Coulter counter. Panels A, C, E show the growth rate of each cell line in the absence of inhibitor. Panels B, D, F show the inhibition of growth as a function of concentration of BZA-5B at each time point. […]
(§2) To examine the effects of farnesyltransferase inhibition on the growth of human tumor cell lines, several such lines were treated with 25 μM BZA-5B (compound 37B) using a procedure similar to that described in Example 129 above. Cells were refed with fresh media at days 3 and 6 containing the inhibitor, and were harvested and counted as described above. […]

[1] = test system: Ras proteins in Met18b-2 cells; experiment: Incorporation of [3H]mevalonate into immunoprecipitated Ras proteins in Met18b-2 cells; assay type: cell-based, Chinese hamster
Protocol: In each experiment, aliquots of the Triton X-100 fraction (300 μg protein, prepared as described above) were incubated with 1 μg anti-Ras monoclonal antibody (Oncogene Sciences, Inc.) overnight at 4° C. on a rotating platform. Immune complexes were precipitated by addition of 25 μl Protein A-agarose suspension that had been pre-coated with goat anti-rat IgG (Oncogene Sciences, Inc.) according to the manufacturer's instructions. After a 30 min incubation at 4° C., the agarose beads were pelleted by centrifugation and washed 5 times with 1 ml each of wash solution (50 mM Tris-HCl, 50 mM NaCl, 0.5% (w/v) deoxycholate, 0.5% (v/v) Nonidet P-40, and 0.1% (w/v) SDS at pH 7.5). 75 μl of 1X SDS sample buffer was added and each sample heated for 5 min at 95° C. before electrophoresis as above.

HT-1080 cells = experiment: Growth inhibition of human tumor line HT-1080; assay type: cell-based; settings: HT-1080, fibrosarcoma, ras transformed, read-out: % growth inhib.
Protocol: as §1, §2

HCT-116 cells = experiment: Growth inhibition of human tumor line HCT-116; assay type: cell-based; settings: HCT-116, colon, ras transformed, read-out: % growth inhib.
Protocol: as §1, §2

MCF-231 cells = experiment: Growth inhibition of human tumor line MCF-231; assay type: cell-based; settings: MCF-231, breast (human), ras transformed, read-out: % growth inhib.
Protocol: as §1, §2

[2] = test system: HT 1080 human tumor cells in nude mouse; experiment: Survival of nude mice after intraperitoneal implantation of HT 1080 human tumor cells; assay type: in vivo; settings: 20 mg/kg daily
Protocol: Implantation of […] HT 1080 cells in the peritoneal cavity of the nude mouse allows seeding and growth of tumor cell masses within the peritoneum. […] In this experiment, fourteen nude mice were injected on day 0 with […] HT 1080 cells via intraperitoneal injection. Half the animals (seven) immediately began receiving daily treatment with Compound 37B at 20 mg/kg (formulated in approx. 0.25 ml of 1% DMSO, 20% glycerol, 10 mM NaOAc, 130 mM NaCl, pH 4.5). The other seven animals received daily injection of the above vehicle alone.

COC(=O)[C@H](CCSC)NC(=O)CN1C(=O)C(N(C)C(=O)[C@@H](N)CS)N=C(c2ccccc2)c2ccccc21 (single isomer, unassigned) [37B] was tested, and the inhibition at 25 µM (MDA-7 cells) was 0%, the “incorporation of [3H]mevalonate into immunoprecipitated ras proteins” value ([1]; 50 μM, FIG. 5, lanes 7-9) was “abolished incorporation of [3H] mevalonate into immunoprecipitated ras proteins” and the minimal effective concentration ([1]; Cricetulus griseus, FIG. 5, read-out: concentration at which inhibition of incorporation into ras proteins was readily detectable) was 10 µM. It also gave an inhibition at 25 µM (HT-1080 cells) of 64%, an inhibition at 25 µM (HCT-116 cells) of 0% and an inhibition at 25 µM (MCF-231 cells) of 58%. For the same compound, the “mortality / survival of mice with IP tumor” value ([2]; over 25 days, FIG. 8) was “caused a reduction in mortality over 25 days; also recorded: blocked the rapid mortality associated with IP implantation of tumor cells” and the “tumor cell masses in the peritoneum at end of treatment” value ([2]; dissection of all treated animals) was “all of the treated animals showed the presence of tumor cell masses in the peritoneum”.
